Experimental data: patent US20060177448A1, “Inhibiting HER2 shedding with matrix metalloprotease antagonists” (Genentech, Inc., priority 2005, published 2006)

Legend:
SKBR-3 cells = assay: HER2 ECD ELISA of conditioned media (HER2 shedding), SKBR-3 cells; assay type: cell-based, human
Procedure: BT 474, MCF-7, and SKBR-3 cells were maintained in high-glucose DMEM:Ham's F12 (50:50) supplemented with 10% heat-inactivated FBS and 2 mM L-Glutamine. […] Cell lines were maintained at 37° C. in a humidified incubator supplied with 5% CO2. BT 474 and SKBR-3 cells were transiently transfected with constructs as described by electroporation using kit V according to the manufacturer's instructions (AMAXA™).
Serum was diluted 1:50 using assay buffer (PBS/0.5% BSA, 0.05% TWEEN® 20/10 ppm PROCLIN® 300/0.2% BGG/0.25% CHAPS/0.15 M NaCl/5mM EDTA (pH 7.4) followed by additional 1:2 serial dilutions. Shed HER2 was captured using a goat anti-HER2 polyclonal antibody (Genentech) onto NUNC® Maxisorp plates and detected using a biotin-conjugated rabbit anti-HER2 polyclonal antibody (Genentech) followed by a AMDEX™-strepavidin-horseradish peroxidase antibody (Amersham Pharmacia Biotech) following a procedure described previously (Sias et al., J. Immunol. Meth. 109:219-27 (1990)). For cell culture experiments, cells were treated as indicated and conditioned media was collected and diluted in assay buffer serially 1:2. The concentration of shed HER2 in serum or in conditioned media was determined from a four-parameter fit of a standard curve using purified recombinant HER2 ECD protein (Genentech) as a standard.
The pSIREN shRNA construct(s) or vector alone were transiently transfected into SKBR-3 and BT 474 cells using AMAXA™ kit V following manufacturer's recommendations. After 48 hours, conditioned media was collected and assayed for shed HER2 by HER2 ELISA and the cells were lysed directly on the plate using 2×Sample buffer.

Fo5 tumors = assay: GM6001 injections in FVB mice with Fo5 xenograft tumors (serum HER2 ECD ELISA, p95 HER2 Western blot); assay type: in vivo, mouse; conditions: 100 mg/kg intraperitoneally daily for 3 days, day four
Excerpt: The Fo5 and f2: 1282 lines have been previously described (Finkle et al., Clin. Cancer Res. 10: 2499-2511 (2004)). These lines were derived from primary tumors from a MMTV HER2 transgenic mouse and passaged in the mammary fat pad of FVB mice.
Fo5 tumors were transplanted into FVB mice and allowed to grow to an average size of 400-600 mm^3 prior to initiating the study. GM6001 (3-[N-hydroxycarbomyl]-[2R]-isobutylpropionyl-L-tryptophan methylamide) was obtained from Calbiochem and reconstituted in a slurry of 4% carboxymethylcellulose/0.9% PBS and administered daily by intraperitoneal injection at 100 mg/kg body weight for 3 days. […] Tumors size was measured at day 0 and at day 4. […]
Serun from mice harboring Fo5 or f2: 1282 xenograft tumors was collected by cardiac puncture and HER2 ECD levels detected using a previously described HER2 ELISA (Finkle et al. Clin. Cancer Res. 10: 2499-2511 (2004)). […] The concentration of shed HER2 in serum or in conditioned media was determined from a four-parameter fit of a standard curve using purified recombinant HER2 ECD protein (Genentech) as a standard.
Fo5 and f2:1282 tumors were resuspended in lysis buffer with protease inhibitors and homogenized using a POLYTRON TISSUEMIZER™ (PT2 100) on ice. Tumor lysates were cleared of insoluble material by centrifugation and total protein levels were determined using a BCA protein assay kit. […]

[1] = system: breast carcinoma cell lines; conditions: cited from earlier work

Compound: CNC(=O)[C@H](Cc1c[nH]c2ccccc12)NC(=O)[C@@H](CC(=O)NO)CC(C)C [GM6001, 3-[N-hydroxycarbomyl]-[2R]-isobutylpropionyl-L-tryptophan methylamide]
- inhibition of HER2 shedding (HER2 ECD ELISA) (SKBR-3 cells; dose response): dose dependently inhibited HER2 shedding
- amount of p95 HER2 in tumor lysates compared to control animals (Fo5 tumors): significant reduction
- serum HER2 ECD levels (Fo5 tumors; versus vehicle): greater reduction

Compound: CNC(=O)[C@H](Cc1ccccc1)NC(=O)[C@H](CC(C)C)[C@H](CSc1cccs1)C(=O)NO [BB-94]
- inhibition of HER2 ECD shedding [1]: inhibited HER2 ECD shedding

Compound: Timp-1: naturally occurring peptides that regulate metalloprotease activity
- HER2 ECD levels in conditioned media (SKBR-3 cells; 1 μg/ml): reduced HER2 ECD levels
